# Assay results taken from patent publication US8835134B2, “Cycloastragenol monoglucoside, preparation, pharmaceutical composition and application thereof” (Tianjin Institute of Pharmaceutical Research, priority 2007, dated 2014).
# System: anesthetized open-chest dogs
# Test: Hemodynamics of anesthetized open-chest dogs, intravenous infusion
# Format: in vivo, mongrel dogs
# Method: The animals were anesthetized by intravenous injection of 30 mg/kg sodium pentobarbital, tracheally intubated, and mechanically ventilated with positive air pressure. Left thoracotomy was performed through the fourth intercostal space and the heart was suspended in a pericardial cradle, the aortic root was isolated and a probe of blood flow meter (12 or 14 mm in diameter) was fixed to measure the aortic blood flow as a representation of cardiac output (CO), the circumflex branch of left coronary artery was isolated and a probe of blood flow meter (2 or 2.5 mm in diameter) was fixed to measure the coronary blood flow (CBF). A polyethylene catheter filled with heparin physiological saline was inserted through cardiac apex into the left ventricle to measure the left ventricular pressure (LVP) and left ventricular end-diastolic pressure (LVEDP), Peak positive and peak negative first derivatives of the LVP (+ LVdp/dt and − LVdp/dt) were calculated with the Acknowledge software. The systolic blood pressure (SBP), diastolic blood pressure (DBP) and mean arterial pressure (MAP) were measured by polyethylene catheter via the femoral artery, ECG □ was measured by a AC-601G ECG amplifier. The above-mentioned analog signal was input into a data acquisition workstation (MP100, BIOPAC Systems, USA) to a computer running Acknowledge (version 3.7.1).
# After surgery, various indexes before administration were recorded until the indexes were stable, and then intravenous infusion administration was conducted. Thirty dogs were divided into five groups (six dogs in each group), the experiment groups were given 0.15, 0.3, 0.6 mg/kg of ASP-[…] respectively, the normal control group was given 1 ml/kg of solvent, and the positive control group was given 0.3 mg/kg of astragaloside IV. The delivery volumes were 15 ml for each dog was and the delivery velocity was 1 ml/min. The indexes were recorded at 5, 10, 15, 20, 30, 45, 60, 90 and 120 mins after drug administration. At the end of experiment, the hearts were excised and weighted. The myocardial blood flow for per hectogram (CF), coronary resistance (CR), cardiac index (CI), left ventricular work (LVW) and total peripheral resistance (TPR) were calculated according to the following formulae: CF=CBF×[…]/heart weight CR=MAP/CF CI=CO/0.11×(body weight)^2/3 LVW=CO×(MAP−5)×1.052×0.0136 TPR=MAP×79.92/CO
# Data are expressed as mean±SD ( x±s), the paired t-test was used to compare the significance between before and after administration, the unpaired t-test was adopted for comparison between groups.
# [1] = 0.3 mg/kg iv, 45 min after administration
# [2] = 0.3 mg/kg iv, 60 min after administration
# [3] = 0.3 mg/kg iv, 90 min after administration
# [4] = 0.3 mg/kg iv, 120 min after administration
# [5] = 0.3 mg/kg iv, before administration
# [6] = 0.6 mg/kg iv, 5 min after administration
# [7] = 0.6 mg/kg iv, 10 min after administration
# [8] = 0.6 mg/kg iv, 15 min after administration
smiles,measurement,setting,value
"CC(C)(O)[C@@H]1CC[C@](C)([C@H]2[C@@H](O)C[C@@]3(C)C4C[C@H](OC5OC(CO)C(O)C(O)C5O)C5C(C)(C)[C@@H](O)CC[C@@]56C[C@@]46CC[C@]23C)O1 (stereo partly drawn) [CMG, Cycloastragenol-6-O-β-D-glucoside]",−dp/dt change vs before administration,"0.3 mg/kg iv, 30 min after administration",(36 ± 97) mmHg/s
same,CF,[1],51.7 ± 23.5 ml/min/100 g
same,CF change vs before administration,[1],(1.6 ± 6.8) ml/min/100 g
same,CI,[1],1.85 ± 0.84 L/min/m^2
same,CI change vs before administration,[1],(−0.13 ± 0.13) L/min/m^2
same,CO,[1],1.03 ± 0.39 L/min
same,CO change vs before administration,[1],(−0.07 ± 0.07) L/min
same,CR,[1],1.65 ± 0.92 mmHg/ml/min/100 g
same,CR change vs before administration,[1],(0.11 ± 0.29) mmHg/ml/min/100 g
same,LVEDP,[1],0.5 ± 2.3 mmHg
same,LVEDP change vs before administration,[1],(−1.28 ± 0.75) mmHg
same,LVP,[1],98 ± 22 mmHg
same,LVP change vs before administration,[1],(−4.8 ± 5.5) mmHg
same,LVW,[1],1.00 ± 0.48 kg · m
same,LVW change vs before administration,[1],(−0.02 ± 0.11) kg · m
same,TPR,[1],6068 ± 2331 dyn · s/cm^5
same,TPR change vs before administration,[1],(768 ± 937) dyn · s/cm^5
same,dp/dt,[1],1285 ± 453 mmHg/s
same,dp/dt change vs before administration,[1],(24 ± 83) mmHg/s
same,−dp/dt,[1],−878 ± 266 mmHg/s
same,−dp/dt change vs before administration,[1],(43 ± 117) mmHg/s
same,CF,[2],51.7 ± 23.9 ml/min/100 g
same,CF change vs before administration,[2],(1.6 ± 6.8) ml/min/100 g
same,CI,[2],1.80 ± 0.93 L/min/m^2
same,CI change vs before administration,[2],(−0.19 ± 0.42) L/min/m^2
same,CO,[2],1.00 ± 0.45 L/min
same,CO change vs before administration,[2],(−0.10 ± 0.25) L/min
same,CR,[2],1.54 ± 0.75 mmHg/ml/min/100 g
same,CR change vs before administration,[2],(0.01 ± 0.19) mmHg/ml/min/100 g
same,LVEDP,[2],0.8 ± 2.8 mmHg
same,LVEDP change vs before administration,[2],(−0.98 ± 0.88) mmHg
same,LVP,[2],98 ± 22 mmHg
same,LVP change vs before administration,[2],(−5.7 ± 6.0) mmHg
same,LVW,[2],0.90 ± 0.43 kg · m
same,LVW change vs before administration,[2],(−0.12 ± 0.26) kg · m
same,TPR,[2],6625 ± 4423 dyn · s/cm^5
same,TPR change vs before administration,[2],(1326 ± 3485) dyn · s/cm^5
same,dp/dt,[2],1272 ± 479 mmHg/s
same,dp/dt change vs before administration,[2],(11 ± 94) mmHg/s
same,−dp/dt,[2],−833 ± 236 mmHg/s
same,−dp/dt change vs before administration,[2],(88 ± 199) mmHg/s
same,CF,[3],51.1 ± 19.1 ml/min/100 g
same,CF change vs before administration,[3],(1.0 ± 4.7) ml/min/100 g
same,CI,[3],1.74 ± 0.98 L/min/m^2
same,CI change vs before administration,[3],(−0.25 ± 0.42) L/min/m^2
same,CO,[3],0.96 ± 0.47 L/min
same,CO change vs before administration,[3],(−0.14 ± 0.24) L/min
same,CR,[3],1.51 ± 0.66 mmHg/ml/min/100 g
same,CR change vs before administration,[3],(−0.02 ± 0.16) mmHg/ml/min/100 g
same,LVEDP,[3],0.9 ± 2.6 mmHg
same,LVEDP change vs before administration,[3],(−0.83 ± 0.72) mmHg
same,LVP,[3],99 ± 20 mmHg
same,LVP change vs before administration,[3],(−4.5 ± 7.0) mmHg
same,LVW,[3],0.90 ± 0.53 kg · m
same,LVW change vs before administration,[3],(−0.12 ± 0.32) kg · m
same,TPR,[3],7000 ± 4452 dyn · s/cm^5
same,TPR change vs before administration,[3],(1701 ± 3472 dyn · s/cm^5
same,dp/dt,[3],1242 ± 437 mmHg/s
same,dp/dt change vs before administration,[3],(−19 ± 39) mmHg/s
same,−dp/dt,[3],−909 ± 312 mmHg/s
same,−dp/dt change vs before administration,[3],(12 ± 172) mmHg/s
same,CF,[4],50.7 ± 20.1 ml/min/100 g
same,CF change vs before administration,[4],(0.5 ± 2.0) ml/min/100 g
same,CI,[4],1.81 ± 1.07 L/min/m^2
same,CI change vs before administration,[4],(−0.17 ± 0.52) L/min/m^2
same,CO,[4],1.00 ± 0.52 L/min
same,CO change vs before administration,[4],(−0.10 ± 0.30) L/min
same,CR,[4],1.60 ± 0.82 mmHg/ml/min/100 g
same,CR change vs before administration,[4],(0.07 ± 0.21) mmHg/ml/min/100 g
same,LVEDP,[4],1.0 ± 2.1 mmHg
same,LVEDP change vs before administration,[4],(−0.71 ± 0.45) mmHg
same,LVP,[4],100 ± 23 mmHg
same,LVP change vs before administration,[4],(−3.5 ± 10.3) mmHg
same,LVW,[4],0.94 ± 0.54 kg · m
same,LVW change vs before administration,[4],(−0.08 ± 0.37) kg · m
same,TPR,[4],7219 ± 5040 dyn · s/cm^5
same,TPR change vs before administration,[4],(1920 ± 3990) dyn · s/cm^5
same,dp/dt,[4],1309 ± 433 mmHg/s
same,dp/dt change vs before administration,[4],(48 ± 92) mmHg/s
same,−dp/dt,[4],−894 ± 278 mmHg/s
same,−dp/dt change vs before administration,[4],(27 ± 63) mmHg/s
same,+LVdp/dtmax maximum increase,"0.3 mg/kg iv, at 5-10 min after administration",12.0±5.0%
same,CF,[5],50.2 ± 19.5 ml/min/100 g
same,CI,[5],1.98 ± 0.84 L/min/m^2
same,CO,[5],1.10 ± 0.38 L/min
same,CR,[5],1.53 ± 0.67 mmHg/ml/min/100 g
same,LVEDP,[5],1.7 ± 2.2 mmHg
same,LVP,[5],103 ± 20 mmHg
same,LVW,[5],1.02 ± 0.47 kg · m
same,TPR,[5],5299 ± 1597 dyn · s/cm^5
same,dp/dt,[5],1261 ± 453 mmHg/s
same,−dp/dt,[5],−921 ± 311 mmHg/s
same,LVEDP maximum decrease,0.6 mg/kg iv,2.1±0.5 mmHg
same,CF,[6],51.7 ± 10.5 ml/min/100 g
same,CF change vs before administration,[6],(0.5 ± 3.1) ml/min/100 g
same,CI,[6],2.00 ± 0.56 L/min/m^2
same,CI change vs before administration,[6],(0.04 ± 0.16) L/min/m^2
same,CO,[6],1.18 ± 0.42 L/min
same,CO change vs before administration,[6],(0.03 ± 0.09) L/min
same,CR,[6],1.44 ± 0.39 mmHg/ml/min/100 g
same,CR change vs before administration,[6],(0.02 ± 0.08) mmHg/ml/min/100 g
same,LVEDP,[6],1.5 ± 1.6 mmHg
same,LVEDP change vs before administration,[6],(−1.17 ± 0.78) mmHg
same,LVP,[6],105 ± 14 mmHg
same,LVP change vs before administration,[6],(−1.1 ± 3.5) mmHg
same,LVW,[6],1.11 ± 0.38 kg · m
same,LVW change vs before administration,[6],(0.03 ± 0.11) kg · m
same,TPR,[6],5474 ± 2219 dyn · s/cm^5
same,TPR change vs before administration,[6],(−32 ± 572) dyn · s/cm^5
same,dp/dt,[6],1186 ± 316 mmHg/s
same,dp/dt change vs before administration,[6],(83 ± 55) mmHg/s
same,−dp/dt,[6],−850 ± 223 mmHg/s
same,−dp/dt change vs before administration,[6],(2 ± 31) mmHg/s
same,CF,[7],51.2 ± 8.4 ml/min/100 g
same,CF change vs before administration,[7],(0.0 ± 2.2) ml/min/100 g
same,CI,[7],2.01 ± 0.39 L/min/m^2
same,CI change vs before administration,[7],(0.05 ± 0.20) L/min/m^2
same,CO,[7],1.17 ± 0.33 L/min
same,CO change vs before administration,[7],(0.02 ± 0.11) L/min
same,CR,[7],1.44 ± 0.40 mmHg/ml/min/100 g
same,CR change vs before administration,[7],(0.03 ± 0.12) mmHg/ml/min/100 g
same,LVEDP,[7],0.9 ± 1.6 mmHg
same,LVEDP change vs before administration,[7],(−1.74 ± 0.68) mmHg
same,LVP,[7],105 ± 17 mmHg
same,LVP change vs before administration,[7],(−1.3 ± 5.0) mmHg
same,LVW,[7],1.11 ± 0.34 kg · m
same,LVW change vs before administration,[7],(0.03 ± 0.15) kg · m
same,TPR,[7],5261 ± 1874 dyn · s/cm^5
same,TPR change vs before administration,[7],(−246 ± 497) dyn · s/cm^5
same,dp/dt,[7],1198 ± 278 mmHg/s
same,dp/dt change vs before administration,[7],(95 ± 70) mmHg/s
same,−dp/dt,[7],−857 ± 238 mmHg/s
same,−dp/dt change vs before administration,[7],(−4 ± 46) mmHg/s
same,CF,[8],51.4 ± 8.3 ml/min/100 g
same,CF change vs before administration,[8],(0.2 ± 3.7) ml/min/100 g
same,CI,[8],2.05 ± 0.50 L/min/m^2
same,CI change vs before administration,[8],(0.09 ± 0.16) L/min/m^2
same,CO,[8],1.20 ± 0.38 L/min
same,CO change vs before administration,[8],(0.05 ± 0.09) L/min
same,CR,[8],1.43 ± 0.35 mmHg/ml/min/100 g
same,CR change vs before administration,[8],(0.01 ± 0.07) mmHg/ml/min/100 g
same,LVEDP,[8],1.3 ± 1.6 mmHg
same,LVEDP change vs before administration,[8],(−1.38 ± 0.51) mmHg
same,LVP,[8],105 ± 17 mmHg
same,LVP change vs before administration,[8],(−0.8 ± 4.1) mmHg
same,LVW,[8],1.14 ± 0.41 kg · m
